In paper PMC8886048, “The Non-phosphorylating Glyceraldehyde-3-Phosphate Dehydrogenase GapN Is a Potential New Drug Target in Streptococcus pyogenes” (Frontiers in Microbiology, 2022):

Assays:
[1] = target: T1, S. pyogenes GapN (Streptococcus pyogenes, UniProt Q99Z67); test: Activity of purified GapN (NADP+ reduction, absorption at 340 nm); assay type: biochemical, S. pyogenes M49 strain 591
T1 sequence (Q99Z67 1-475): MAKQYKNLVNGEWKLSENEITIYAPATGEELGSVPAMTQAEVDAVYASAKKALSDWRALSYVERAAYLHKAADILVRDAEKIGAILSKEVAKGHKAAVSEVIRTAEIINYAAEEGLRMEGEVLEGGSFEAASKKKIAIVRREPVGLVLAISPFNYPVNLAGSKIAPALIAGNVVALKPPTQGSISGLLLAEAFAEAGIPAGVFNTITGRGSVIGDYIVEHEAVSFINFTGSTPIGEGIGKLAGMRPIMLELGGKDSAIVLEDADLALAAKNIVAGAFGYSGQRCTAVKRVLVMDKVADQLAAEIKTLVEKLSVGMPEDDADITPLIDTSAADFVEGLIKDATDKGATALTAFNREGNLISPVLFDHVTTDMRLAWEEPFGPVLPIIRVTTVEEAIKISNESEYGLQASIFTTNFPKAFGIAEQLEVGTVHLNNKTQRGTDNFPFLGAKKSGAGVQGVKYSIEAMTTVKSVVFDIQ
Experimental: (§1) Fractions containing pure protein were pooled and dialyzed overnight in PBS or 0.1 M citric acid (pH 6.0) to prepare them for enzymatic assays.
(§2) For the measurement of activity of purified GapN, the protein concentration was adjusted to 70 μg/ml. The specific GapN activity was measured as described in [Iddar et al. (2003)] with modification of the protocol. […] The reaction was started by adding DL-G3P. […] As controls, the assay was carried out without addition of protein sample and without addition of G3P, respectively. GapN activity was calculated with the Lambert-Beer equation and expressed in units per milligram of total protein (U/mg), where one unit is defined as the formation of 1 μmol NADPH per minute. […] Potential activating or inhibiting effects on GapN activity were tested by adding 25 mM NaCl, 25 mM KCl, 25 mM NH4Cl, 10 mM D-glucose, 10 mM D-fructose, 10 mM sodium pyruvate, 10 mM ATP, 2 mM erythrose 4-phosphate (E4P), 2 mM sedoheptulose 7-phosphate (S7P), 0.4 mM NADH or 0.4 mM NADPH to the assay mixture.

[2] = test system: S. mutans GapN; conditions: ref Crow and Wittenberger, 1979; cited from earlier work
Excerpt: E4P and phosphohydroxypyruvate were also described to inhibit GapN extracted from pea shoots, maize leaf and the green algae Chlamydomonas reinhardtii ([Kelly and Gibbs, 1973]; [Iglesias et al., 1987]). E4P and S7P are produced in the non-oxidative part of the PPP ([Stincone et al., 2015]), which is present in S. pyogenes. Thus, they could play a role in the in vivo regulation of the enzyme. […] ATP is generated during glycolysis, which provides most of the energy in S. pyogenes.

[3] = test system: S. pyogenes GapN; conditions: ref Iddar et al., 2003; cited from earlier work
Excerpt: The non-phosphorylating glyceraldehyde-3-phosphate dehydrogenase GapN has been predicted to be an essential enzyme in S. pyogenes M49 based on gene essentiality analyses via transposon mutant libraries ([Le Breton et al., 2015]).

[4] = target: non-phosphorylating glyceraldehyde-3-phosphate dehydrogenase GapN of S. pyogenes M49 strain 591 (wild type) (S. pyogenes M49 strain 591); test: SEC-MALS; HiLoad 16/600 Superdex 200 pg, room temperature, 1 x PBS pH 7.4, 0.5 ml/min; oligomeric state in solution
[5] = substrate: O=CC(O)COP(=O)(O)O; test: purified protein, by the assay type; assay type: biochemical, S. pyogenes M49 strain 591; conditions: other: Strep-tagged GapN; ± standard error printed (0.05 NADP; 0.19 DL-G3P)
Experimental: as §1, §2

Nc1ncnc2c1ncn2[C@@H]1O[C@H](COP(=O)(O)OP(=O)(O)OP(=O)(O)O)[C@@H](O)[C@H]1O [ATP]
Reduction of the activity of purified GapN ([1]; 10 mM ATP added to standard assay (10 mM NADP+, 2 mM DL-G3P, pH 8.5), n = 4): 50%
Effect on S. mutans GapN activity [2]: inhibited by ATP to some extent

O=C[C@H](O)[C@H](O)COP(=O)(O)O [E4P, erythrose 4-phosphate]
Reduction of the activity of purified GapN ([1]; 2 mM E4P added to standard assay (10 mM NADP+, 2 mM DL-G3P, pH 8.5), n = 4): 90%
Specific GapN activity relative to standard assay mix ([1]; in the presence of 2 mM E4P, mean ± SD, n = 4): 10.8 ± 1.9%
Effect on S. mutans GapN activity [2]: inhibitory effects

O=CC(O)COP(=O)(O)O (stereo not drawn) [G3P, glyceraldehyde 3-phosphate]
Km [3]: 666 µM

O=C(CO)[C@@H](O)[C@H](O)[C@H](O)[C@H](O)COP(=O)(O)O [S7P, sedoheptulose 7-phosphate]
Effect on specific activity of purified GapN ([1]; added to standard assay: 25 mM salts, 10 mM sugars/pyruvate, 2 mM S7P, 0.4 mM NADH or NADPH, n = 4, one-way ANOVA): does not inhibit
Effect on S. mutans GapN activity [2]: inhibitory effects

O=C(O)C(=O)COP(=O)(O)O [phosphohydroxypyruvate]
Effect on S. mutans GapN activity [2]: inhibitory effects

NADP
Km [3]: 385 µM

non-phosphorylating glyceraldehyde-3-phosphate dehydrogenase GapN of S. pyogenes M49 strain 591 (wild type) (enzyme)
stoichiometry N [4]: 4

B1: S. pyogenes GapN (Streptococcus pyogenes serotype M1) (protein)
chain: MAKQYKNLVNGEWKLSENEITIYAPATGEELGSVPAMTQAEVDAVYASAKKALSDWRALSYVERAAYLHKAADILVRDAEKIGAILSKEVAKGHKAAVSEVIRTAEIINYAAEEGLRMEGEVLEGGSFEAASKKKIAIVRREPVGLVLAISPFNYPVNLAGSKIAPALIAGNVVALKPPTQGSISGLLLAEAFAEAGIPAGVFNTITGRGSVIGDYIVEHEAVSFINFTGSTPIGEGIGKLAGMRPIMLELGGKDSAIVLEDADLALAAKNIVAGAFGYSGQRCTAVKRVLVMDKVADQLAAEIKTLVEKLSVGMPEDDADITPLIDTSAADFVEGLIKDATDKGATALTAFNREGNLISPVLFDHVTTDMRLAWEEPFGPVLPIIRVTTVEEAIKISNESEYGLQASIFTTNFPKAFGIAEQLEVGTVHLNNKTQRGTDNFPFLGAKKSGAGVQGVKYSIEAMTTVKSVVFDIQ
Km [5]: 580 µM
